# Target: P. falciparum apicoplast DNA polymerase (Pf-apPOL) (Plasmodium falciparum, UniProt Q8ILY1)
# Assay: Fluorescence-based high-throughput DNA polymerase assay (molecular beacon), primary screen and dose-response;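 for % inhibition ApPOL 90': test concentration in µM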;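 for % inhibition apPOL 180': test concentration in µM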
# Assay type: biochemical
# Summary of the method: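 Single-point screening used 10 µM compound with 20 nM polymerase, 20 nM hairpin substrate and 6 µM dNTPs for 90 min at 25 °C. Confirmatory titrations (2.5–80 µM) followed fluorescence at three times, and IC50 was derived from a fit including a cooperativity term n.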
# Chain of P. falciparum apicoplast DNA polymerase (Pf-apPOL) (Q8ILY1 entry or part of it): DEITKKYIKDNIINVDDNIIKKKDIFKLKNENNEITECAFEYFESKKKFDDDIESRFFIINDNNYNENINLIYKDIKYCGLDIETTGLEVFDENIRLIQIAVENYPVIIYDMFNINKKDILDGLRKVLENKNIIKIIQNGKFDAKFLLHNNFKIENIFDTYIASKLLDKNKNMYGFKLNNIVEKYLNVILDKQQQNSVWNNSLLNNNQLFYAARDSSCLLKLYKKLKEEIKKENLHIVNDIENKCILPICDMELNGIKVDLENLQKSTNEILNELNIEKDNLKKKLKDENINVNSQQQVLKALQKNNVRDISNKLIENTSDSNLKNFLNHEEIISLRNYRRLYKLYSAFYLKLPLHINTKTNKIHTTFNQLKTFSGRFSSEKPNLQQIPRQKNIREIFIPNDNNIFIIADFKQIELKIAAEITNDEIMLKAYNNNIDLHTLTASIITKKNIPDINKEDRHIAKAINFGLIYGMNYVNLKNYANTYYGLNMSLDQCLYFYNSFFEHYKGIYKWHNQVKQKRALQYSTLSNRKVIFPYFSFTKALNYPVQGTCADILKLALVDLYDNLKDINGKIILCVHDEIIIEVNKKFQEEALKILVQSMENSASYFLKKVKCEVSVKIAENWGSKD
compound,measurement,setting,value
Cc1nn(CC(=O)NCCSCc2ccco2)c(C)c1Br [KU0267182],DNA Pol,"186 hits, value of the hit list (primary screen); unit not given; 90 min, 10 µM",72
same,% inhibition Apo pol 10',DRC-1; 10'; concentration 2.5,1.812%
same,% inhibition Apo pol 10',DRC-1; 10'; concentration 5,6.711%
same,% inhibition Apo pol 10',DRC-1; 10'; concentration 10,15.4752%
same,% inhibition Apo pol 10',DRC-1; 10'; concentration 20,17.8463%
same,% inhibition Apo pol 10',DRC-1; 10'; concentration 40,47.0773%
same,% inhibition Apo pol 10',DRC-1; 10'; concentration 80,72.2462%
same,% inhibition Apol 90',DRC-1; 90'; concentration 2.5,-1.178%
same,% inhibition Apol 90',DRC-1; 90'; concentration 5,2.416%
same,% inhibition Apol 90',DRC-1; 90'; concentration 10,7.223%
same,% inhibition Apol 90',DRC-1; 90'; concentration 20,9.063%
same,% inhibition Apol 90',DRC-1; 90'; concentration 40,29.9709%
same,% inhibition Apol 90',DRC-1; 90'; concentration 80,56.479%
same,% inhibition apPOL 180',DRC-1; 180'; concentration 2.5,-4.52%
same,% inhibition apPOL 180',DRC-1; 180'; concentration 5,-1.314%
same,% inhibition apPOL 180',DRC-1; 180'; concentration 10,2.547%
same,% inhibition apPOL 180',DRC-1; 180'; concentration 20,1.732%
same,% inhibition apPOL 180',DRC-1; 180'; concentration 40,16.5888%
same,% inhibition apPOL 180',DRC-1; 180'; concentration 80,39.2205%
same,% inhibition Apo pol 5',"DRC-2, 5', concentration 2.5",6%
same,% inhibition Apo pol 5',"DRC-2, 5', concentration 5",7.46%
same,% inhibition Apo pol 5',"DRC-2, 5', concentration 10",16%
same,% inhibition Apo pol 5',"DRC-2, 5', concentration 20",23%
same,% inhibition Apo pol 5',"DRC-2, 5', concentration 40",43%
same,% inhibition Apo pol 5',"DRC-2, 5', concentration 80",55%
same,% inhibition Apol 40',"DRC-2, 40', concentration 2.5",7.41%
same,% inhibition Apol 40',"DRC-2, 40', concentration 5",7%
same,% inhibition Apol 40',"DRC-2, 40', concentration 10",15%
same,% inhibition Apol 40',"DRC-2, 40', concentration 20",21%
same,% inhibition Apol 40',"DRC-2, 40', concentration 40",45%
same,% inhibition Apol 40',"DRC-2, 40', concentration 80",64%
same,% inhibition ApPOL 90',"DRC-2, 90', concentration 2.5",6%
same,% inhibition ApPOL 90',"DRC-2, 90', concentration 5",4%
same,% inhibition ApPOL 90',"DRC-2, 90', concentration 10",12%
same,% inhibition ApPOL 90',"DRC-2, 90', concentration 20",16%
same,% inhibition ApPOL 90',"DRC-2, 90', concentration 40",39%
same,% inhibition ApPOL 90',"DRC-2, 90', concentration 80",63%
same,% inhibition apPOL 180',"DRC-2, 180', concentration 2.5",0.763%
same,% inhibition apPOL 180',"DRC-2, 180', concentration 5",-0.774%
same,% inhibition apPOL 180',"DRC-2, 180', concentration 10",3.79%
same,% inhibition apPOL 180',"DRC-2, 180', concentration 20",7.41%
same,% inhibition apPOL 180',"DRC-2, 180', concentration 40",27%
same,% inhibition apPOL 180',"DRC-2, 180', concentration 80",55%
same,% inhibition Apo pol 5',DRC-2; 5'; concentration 2.5,6%
same,% inhibition Apo pol 5',DRC-2; 5'; concentration 10,16%
same,% inhibition Apo pol 5',DRC-2; 5'; concentration 80,55%
same,% inhibition Apol 40',DRC-2; 40'; concentration 2.5,7.41%
same,% inhibition ApPOL 90',DRC-2; 90'; concentration 2.5,6%
same,% inhibition ApPOL 90',DRC-2; 90'; concentration 20,16%
same,% inhibition apPOL 180',DRC-2; 180'; concentration 20,7.41%
same,% inhibition apPOL 180',DRC-2; 180'; concentration 80,55%
same,DNA Pol,"primary screen value, 'DNA Pol' only; 90 min, 10 µM",72
